Assay results as given in BindingDB's records for doi:10.1021/jm020994z (Universit&#224, 2003).

Tests used:
[1] = Binding affinity of compound was tested for Sigma receptor type 1
[2] = molecular target: Sigma intracellular receptor 2 (Rattus norvegicus); experiment: Binding affinity of compound was tested for Sigma receptor type 2

Row | Structure (SMILES) | Ki [1] [nM] | Ki [2] [nM]
1 | O=C(CCCCCN1CCN(c2noc3ccccc23)CC1)c1ccccc1O [6-(4-Benzo[d]isoxazol-3-yl-piperazin-1-yl)-1-(2-hydroxy-phenyl)-hexan-1-one] | 61 | –
2 | COc1ccccc1C(=O)CCCCCN1CCN(c2noc3ccccc23)CC1 [6-(4-Benzo[d]isoxazol-3-yl-piperazin-1-yl)-1-(2-methoxy-phenyl)-hexan-1-one] | 4300 | 147
